Here are results for 6 compounds from US20080260842A1, “PERMEATION ENHANCING COMPOSITIONS FOR ANTICHOLINERGIC AGENTS” (priority 2004, published 2008).

Like-named read-outs stand apart in the source and are kept apart here.

The nature of data set [1]: Dose-ranging pharmacokinetic study of transdermal oxybutynin gel in healthy volunteers (Example 18). As to conditions: after 20 days (steady-state), mean ± SD, N = 16. As to the method:
The study was an open-label, randomized, parallel, three-treatment, dose-ranging pharmacokinetic study. […] The subjects were aged 19 to 53 (mean 35) years.
The oxybutynin transdermal gel formulation contained 3% w/w of oxybutynin base in a hydroalcoholic non-occlusive matrix including the unique combination of permeation enhancers of the present invention. Three different doses of the gel were administered topically once a day during 20 consecutive days: treatment A consisted in a daily amount of 1.4 g applied gel, corresponding to 42 mg oxybutynin; treatment B consisted in a daily amount of 2.0 g applied gel, corresponding to 60 mg oxybutynin; and treatment C consisted in a daily amount of 2.8 g applied gel, corresponding to 84 mg oxybutynin.

A short description of data set [2]: Pilot pharmacokinetic study of an oxybutynin gel formulation in healthy volunteers (Example 17). As to conditions: Treatment A (60 mg/day gel), 156 h, individual subjects.
Description: (§1) Subjects were excluded on the basis of any preexisting condition or finding on the prestudy examination that would place them at risk during the study. Written informed consent was obtained from each subject before participating in any study-related procedures after discussion and explanation of the study.
(§2) Treatments were administered according to an open-label, multiple-dose, escalating dose titration pilot pharmacokinetic study and included a transdermal oxybutynin gel. Steady-state conditions were achieved by administering daily doses for 7 days. Subjects participated in 2 study periods during which the test medication (a transdermal gel) was applied once daily. 2 g of the gel (corresponding to a dose of 60 mg of oxybutynin) was applied daily during the first study period (Treatment A), then 1 g (corresponding to a dose of 30 mg of oxybutynin) during the second study period (Treatment B). A wash-out period of 7 days was observed between the two study periods. Both dosages were tested on same subjects. The design allows comparison between different dosages of the same formulation within the subject and removes inter-subject variability.
(§3) The main objective of this study was to assess the pharmacokinetic parameters of an oxybutynin gel formulation, administered in two different doses, administering the product in 8 healthy female volunteers.
(§4) The secondary objective of this study was to record safety parameters such as adverse events, skin tolerance, vital signs, e.g., blood pressure and heart rate.
The conditions of data set [3]: female, human, in vivo.
Description: as §1, §2, §3, §4
For data set [4] the following is noted: both, human, in vivo.
A further data set concerns detrusor muscle. As to conditions: cited from earlier work.
The next data set can be described thus: clinical. As to conditions: both, human, in vivo, 84 mg, Tmax median.
The nature of data set [5]: Pharmacokinetic study of R/S OXY and DEO enantiomers, transdermal oxybutynin gel (Example 20). As to conditions: single-dose topical 84 mg OXY gel, abdominal area, normalized to 84 mg, mean ± SD, N = 10. In kind it is in vivo, human. The protocol: Ten healthy volunteers (Asian Indians, 60% female) aged 18 to 35 (mean 29) years old were treated with 2.8 g of a formulation of the present invention containing 3% w/w of OXY base (84 mg OXY), administered topically as a single dose on the abdomen (700 cm^2).

Regarding `CCNCC#CCOC(=O)C(O)(c1ccccc1)C1CCCCC1` (centres unmarked) [N-desethyloxybutynin], the results for the Cav in data set [1] (Treatment A: 42 mg oxybutynin daily), in data set [1] (Treatment B: 60 mg oxybutynin daily) and in data set [1] (Treatment C: 84 mg oxybutynin daily) were 3.0 ± 1.3 ng/mL, 4.0 ± 2.1 ng/mL and 7.0 ± 4.0 ng/mL, respectively. Besides, in data set [2], the N-desethyloxybutynin concentration was 11.970 ng/L.

A word on the Tmax: it is the time from dosing to the highest level. For the compound `CCN(CC)CC#CCOC(=O)C(O)(c1ccccc1)C1CCCCC1` (centres unmarked) [Oxybutynin], the “Treatment A/Treatment B Ratio - Oxybutynin” value in data set [3] was found to be 1.93. Also, in data set [3] (0 h), the “Treatment A/Treatment B Ratio - Oxybutynin” value is 0. In data set [4], the “time to reach plasmatic levels of about 1 to 4 ng/ml” value is “about 2 hours”, the “time to reach plasmatic levels of about 2 to 4 ng/ml” value is reported as “less than 4 hours”, the “time to reach plasmatic levels of about 3 to about 4 ng/ml” value was “less than 6 hours” and the “time up to which plasmatic levels of about 1 to 4 ng/ml are sustained” value was “at least 72 hours”. Besides, in data set [4], the “time up to which plasmatic levels of about 2 to 4 ng/ml are sustained” value was “at least 48 hours” and the “time up to which plasmatic levels of about 3 to about 4 ng/ml are sustained” value is “at least 36 hours”. In addition, the “antispasmodic activity relative to atropine” value with detrusor muscle is recorded as “four to ten times”. Moreover, in the data set on detrusor muscle (detrusor muscle, effect observed in rabbits), the “anticholinergic activity relative to atropine” value is recorded as “one-fifth”. In “clinical”, the Tmax stood at 24 h.

By Cmax is commonly meant the maximum level reached in the sampled fluid or tissue. In data set [5], `CCNCC#CCOC(=O)[C@](O)(c1ccccc1)C1CCCCC1` [R-DEX] gave an AUC0-120 of 269.5 ± 132.8 ng·h/mL and a Cmax of 6.3 ng/mL.

`CCN(CC)CC#CCOC(=O)[C@](O)(c1ccccc1)C1CCCCC1` [R-OXY]: in data set [5], the AUC0-120 came to 151.1 ± 56.0 ng·h/mL and the Cmax turned out to be 3.6 ng/mL.

Consider `CCNCC#CCOC(=O)[C@@](O)(c1ccccc1)C1CCCCC1` [S-DEX], for which, in data set [5], the AUC0-120 was 285.5 ± 152.9 ng·h/mL and the Cmax worked out at 6.9 ± 3.8 ng/mL.

In data set [5], `CCN(CC)CC#CCOC(=O)[C@@](O)(c1ccccc1)C1CCCCC1` [S-OXY] came in with an AUC0-120 of 246.0 ± 96.7 ng·h/mL and a Cmax of 5.8 ± 2.6 ng/mL.
